# Results published in US12558326B2, “Method for treating epilepsy” (Xenon Pharmaceuticals Inc., priority 2018, dated 2026).
# Columns and labels:
# CF-1 mice = experiment: 6 Hz seizure test (44 mA, 3 sec, corneal electrodes) in vivo; design: species or system mouse; details: 20 mg/kg IP; for percentage of animals protected against psychomotor seizures: one hour before assay, 6 Hz 44 mA, n=16 per group
# Text: This assay tests the ability of a test compound to block a psychomotor seizure induced by long-duration, low frequency (6 Hz) stimulation, and provides an art-accepted model of therapy-resistant partial seizure (Brown et al., 1953 J. Pharmacol. Exp. Therapeut. 107(3):273-283; White H S, Woodhead J H, Wilcox K S, General principles: discovery and preclinical development of antiepileptic drugs, In: Levy R H, Mattson R H, Meldrum B S, Perucca E, editors. Antiepileptic drugs 5th ed Philadelphia: Lippincott Williams & Wilkins; 2002. pp. 36-48; Hartman et al., 2008 Epilepsia 49(2):334-339).
# Methods. Adult male CF1 mice (18-25 g) are pretreated intraperitoneally (i.p.) with the test compound at a dose of 20-100 mg/kg. If toxicity is noted in a pre-test screen for toxic effects when the test compound is administered i.p. at varying dosages, the dose is modified to avoid overt toxic effects. Each treatment group (n=4-16 mice/group) is examined for anticonvulsive effects at one or more of five time points (¼, ½, 1, 2, and 4 hr) after treatment with the test compound. Following pretreatment, each mouse receives a drop of 0.5% tetracaine hydrochloride applied to each eye. The mouse is then challenged with low-frequency (6 Hz) stimulation for 3 sec delivered through corneal electrodes. The low-frequency, long-duration stimuli are initially delivered at 32 mA intensity. Animals are manually restrained and released immediately following the stimulation and observed for the presence or absence of seizure activity. If the test compound is effective in the 32 mA screen, an additional assay is performed in which the stimulation current is increased to 44 mA but otherwise using the same protocol as described above. For dose-response studies, an n of 8 mice is used per dose and a dose-response curve is generated at the time of peak effect (TPE) at the specific stimulation intensity.
# Typically, the 6 Hz stimulation results in a seizure characterized by a minimal clonic phase that is followed by stereotyped, automatistic behaviors, including jaw clonus, forelimb clonus, twitching of the vibrissae, and/or Straub-tail. Animals not displaying such behaviors are considered protected. Seizure score can be used as an additional measure of the efficacy of the investigational compound (Racine, R. J. 1972 Electroencephalogr. Clin. Neurophysiol. 32(3):281-294). Data are analyzed by Mann-Whitney U test, with p<0.05 determined to be statistically significant. For data obtained at each time point, results are expressed as the total number of animals protected out of the number of animals tested over time (e.g., 2/4 represents 2 out of 4 mice tested are protected).
# In this Example, the in vivo anticonvulsant effects of candidate AEDs were tested in mice using the 6 Hz seizure test. The 6 Hz seizure test was performed essentially as described above in Biological Example 2, with minor modifications as presented here, including data collection at a time point that was one hour after administration of the candidate AEDs.
# Compounds: Candidate AED compounds were prepared as described above unless otherwise noted, and were as follows: • Racemic fenfluramine ([rac]-fenfluramine hydrochloride); • (R)-fenfluramine ([R]-(−)-fenfluramine hydrochloride); • Racemic norfenfluramine ([rac]-norfenfluramine) was purchased from Toronto Research Chemicals, North York, Ontario, Canada; • (R)-norfenfluramine ([R]-(−)-norfenfluramine.
# Animals: Adult male CF-1 albino mice (25-35 g) purchased from Harlan-Envigo (East Millstone, NJ). The mice were housed four per cage and had access to filtered water and chow ad libitum, throughout the experiment.
# Compound Preparation and Administration: All four compounds were solubilized in sterile aqueous saline solution (0.9% NaCl). Compounds were administered to animals (16 mice in each treatment group) via intraperitoneal (IP) injection at 10 ml/kg volume, one hour prior to the assay. Control animals received vehicle (saline) only. […]
# DBA/2 mice = experiment: Audiogenic seizure test in DBA/2 mice; assay type: in vivo, mouse; details: for Clonic Convulsion Incidence / Tonic Extension Incidence / Wild Running Incidence / Clonic Convulsion Latency / Tonic Extension Latency / Wild Running Latency / Audiogenic Response Score: 60 min prior; for Clonic Convulsion Incidence / Tonic Extension Incidence / Wild Running Incidence / Audiogenic Response Score: n=10; for Clonic Convulsion Latency / Tonic Extension Latency / Wild Running Latency / Audiogenic Response Score: mean ± SEM; for Clonic Convulsion Latency / Tonic Extension Latency / Wild Running Latency: maximum 60 s; for Audiogenic Response Score: score 0-4; for change in number of mice showing clonic convulsions / change in number of mice showing tonic convulsions / increase in latency to clonic convulsions / increase in latency to tonic convulsions / reduction of overall audiogenic response score: versus vehicle controls; for anticonvulsant activity in the audiogenic seizure test: (R/S)-fenfluramine at 15 and 30 mg/kg, (R)-fenfluramine at 30 mg/kg
# Description: DBA/2 is a widely used inbred strain of mouse susceptible to audiogenic seizures due to the asp2 mutation. […] The objective of this study was to evaluate the anticonvulsant activity of (R/S)-fenfluramine and to compare it to (R)-fenfluramine in the DBA/2 mouse.
# The method follows that described by Dilrmuiller et al., Neuroreport 4(6):683-686. Mice (DBA/2, 3-4 weeks old) were individually transferred (at 3-5 minute intervals) from the preparation room into an adjacent experimental room and placed in a Plexiglas™ jar (Diameter=40 cm; Height=35 cm) mounted with an electric bell (110-120 dB). Upon activating the bell, the occurrences and latencies to wild running fits, clonic and tonic seizures were measured. The number of deaths was also recorded. An audiogenic response score was assigned to each mouse as 0 (no seizure), 1 (wild running), 2 (clonic convulsion), 3 (tonic extension), or 4 (death). The bell was activated until a tonic seizure occurred or for a maximum of 60 seconds. Ten (10) mice were studied per group. The test was performed blind. All test compounds were dissolved in 0.9% saline (vehicle) and were administered by intraperitoneal (IP) injection at a dose volume of 10 mL/kg. Vehicle alone, (R/S)-fenfluramine (15 or 30 mg/kg) or (R)-fenfluramine (30 mg/kg) were administered 60 minutes prior to seizure induction. The positive reference compound (valproate; 180 mg/kg) was administered 30 minutes prior to seizure induction.
Structure (SMILES),percentage of animals protected against psychomotor seizures (CF-1 mice) [%],Clonic Convulsion Incidence (DBA/2 mice; 30 mg/kg IP) [%],Tonic Extension Incidence (DBA/2 mice; 30 mg/kg IP) [%],Wild Running Incidence (DBA/2 mice; 30 mg/kg IP) [%],Clonic Convulsion Latency (DBA/2 mice; 30 mg/kg IP) [s],Tonic Extension Latency (DBA/2 mice; 30 mg/kg IP) [s],Wild Running Latency (DBA/2 mice; 30 mg/kg IP) [s],Audiogenic Response Score (DBA/2 mice; 30 mg/kg IP),change in number of mice showing clonic convulsions (DBA/2 mice; 30 mg/kg IP) [%],change in number of mice showing tonic convulsions (DBA/2 mice; 30 mg/kg IP) [%],increase in latency to clonic convulsions (DBA/2 mice; 30 mg/kg IP),increase in latency to tonic convulsions (DBA/2 mice; 30 mg/kg IP),reduction of overall audiogenic response score (DBA/2 mice; 30 mg/kg IP) [%],anticonvulsant activity in the audiogenic seizure test (DBA/2 mice),other results
"CCNC(C)Cc1cccc(C(F)(F)F)c1 (racemic) [(rac)-fenfluramine, (R/S)—N-ethyl-1-(3-(trifluoromethyl)phenyl)propan-2-amine]",37.5,10,0,80,55.3 ± 4.8,60.0 ± 0.0,16.6 ± 7.4,0.9 ± 0.18,−90,−100,+853%,+641%,72,clear anticonvulsant activity,protective activity against seizures in the 6 Hz psychomotor seizure assay (CF-1 mice; summary statement): exhibited protective activity against seizures; Clonic Convulsion Incidence (DBA/2 mice; 15 mg/kg IP): 60%; Tonic Extension Incidence (DBA/2 mice; 15 mg/kg IP): 0%; Wild Running Incidence (DBA/2 mice; 15 mg/kg IP): 100%; Clonic Convulsion Latency (DBA/2 mice; 15 mg/kg IP): 31.4 ± 7.8 s; Tonic Extension Latency (DBA/2 mice; 15 mg/kg IP): 60.0 ± 0.0 s; Wild Running Latency (DBA/2 mice; 15 mg/kg IP): 4.0 ± 0.7 s; Audiogenic Response Score (DBA/2 mice; 15 mg/kg IP): 1.6 ± 0.16; change in number of mice showing clonic convulsions (DBA/2 mice; 15 mg/kg IP): −40%; change in number of mice showing tonic convulsions (DBA/2 mice; 15 mg/kg IP): −100%; increase in latency to clonic convulsions (DBA/2 mice; 15 mg/kg IP): +441%; increase in latency to tonic convulsions (DBA/2 mice; 15 mg/kg IP): +641%; reduction of overall audiogenic response score (DBA/2 mice; 15 mg/kg IP): 50%
"CCN[C@H](C)Cc1cccc(C(F)(F)F)c1 [(R)-fenfluramine, (R)—N-ethyl-1-(3-(trifluoromethyl)phenyl)propan-2-amine]",31.3,60,0,100,31.9 ± 7.7,60.0 ± 0.0,5.0 ± 1.4,1.6 ± 0.16,−40,−100,+450%,+641%,50,clear anticonvulsant activity,
